This is an account of results in US20230087844A1, “USE OF N2-QUINCLINE OR ISOQUINOLINE SUBSTITUTED PURINE DERIVATIVES IN CANCER TREATMENT” (SHANGHAI HUAYU BIOTECHNOLOGY CO., LTD., priority 2020, published 2023).

The structures appear in SMILES notation. Marks after values point to notes of the source that are not given here.

Series [1] has as its system MV-4-11 cells. The series can be described thus: MV-4-11 AML xenograft in mice (Example 7). In kind it is in vivo, BALB-cA nude mice. As to conditions: D0-20; for Complete remission: number of mice, N 6. The procedure:
Mice body weights and tumor sizes were measured twice a week. The tumor volume, T/C and TGI (Tumor growth inhibition=(average tumor volume in vehicle group-average tumor volume in administration group)/average tumor volume in vehicle group ×100%) were calculated. Mice were sacrificed on Day 21.

Series [2] relates to S180 murine sarcoma cancer cells. Briefly: S180 sarcoma growth in mice. Conditions: 30 mg/kg I.P., D1-7. How it is done: On Day 8, the mice were weighed and sacrificed, and the tumors were collected and weighed.
Tumor growth inhibition (TGI) was calculated by the following formula. Tumor growth inhibition=(average tumor weight in vehicle group-average tumor weight in administration group)/average tumor weight in vehicle group×100%

Series [3] concerns Colon26 murine colon cancer cells. Briefly: Colon26 colon cancer growth in mice. Format: in vivo, F1 mice. Conditions: for TGI / Tumor weight: Day 8. The procedure: F1 mice, 18-22 g, purchased from Shanghai Bi-Kai Laboratory Animal Co., Ltd, were subcutaneously inoculated with Colon26 murine colon cancer cells (from Cell Bank, Chinese Academy of Sciences) at the right axilla. […] Tumor growth inhibition (TGI) was calculated.

The test system of series [4] is SGC-7901 human gastric cancer cells. The series can be described thus: SGC-7901 gastric cancer xenograft in mice. Conditions: 5 mg/kg I.P., D0, 6.
Procedure: Mice body weights and tumor sizes were measured 2 to 3 times a week. The tumor volume (V) was calculated as (length× width^2)/2. T/C (%) was calculated as (T-T0)/(C-C0)×100, wherein T and C represented the tumor volumes in the administration group and the vehicle group respectively at the end of the experiment, while T0 and C0 represented the tumor volumes in the administration group and the vehicle group respectively at the beginning of the experiment. And RTV was calculated as (Tumor volume at Day N/Tumor volume at Day 0).
BALB/cA-nude mice, 5-6 weeks old, purchased from Shanghai SLAC Laboratory Animal Co., Ltd, were subcutaneously inoculated with SGC-7901 human gastric cancer cells (from Cell Bank, Chinese Academy of Sciences).
(§7) Mice body weights and tumor sizes were measured 2 to 3 times a week. The tumor volume, T/C and RTV were calculated as described above. Mice were sacrificed on Day 18.
Series [5] concerns A549 human non-small cell lung cancer cells. Briefly: A549 non-small cell lung cancer xenograft in mice. Conditions: 5 mg/kg I.P., D0, 3.
Procedure: Mice body weights and tumor sizes were measured 2 to 3 times a week. The tumor volume (V) was calculated as (length× width^2)/2. T/C (%) was calculated as (T-T0)/(C-C0)×100, wherein T and C represented the tumor volumes in the administration group and the vehicle group respectively at the end of the experiment, while T0 and C0 represented the tumor volumes in the administration group and the vehicle group respectively at the beginning of the experiment. And RTV was calculated as (Tumor volume at Day N/Tumor volume at Day 0). Mice were sacrificed on Day-14.
BALB/cA-nude mice, 5-6 weeks old, purchased from Shanghai SLAC Laboratory Animal Co., Ltd, were subcutaneously inoculated with A549 human non-small cell lung cancer cells (from ATCC).
as §7
The test system of series [6] is MV-4-11 cells. The series can be described thus: MV-4-11 AML xenograft in mice, combination with daunorubicin (Example 8). In kind it is in vivo, BALB-cA nude mice. Conditions: 2 mg/kg I.V., D0-10. How it is done: Mice body weights and tumor sizes were measured twice a week. The tumor volume, T/C and TGI (Tumor growth inhibition=(average tumor volume in vehicle group-average tumor volume in administration group)/average tumor volume in vehicle group ×100%) were calculated. Mice were sacrificed on Day 21. Female BALB-cA nude mice, 6-7 weeks old, purchased from Shanghai Ling-chang Biotech Co., Ltd, were subcutaneously inoculated with MV-4-11 cells (from ATCC). […] Mice body weights and tumor sizes were measured twice a week. The tumor volume, T/C and tumor volume based TGI were calculated as described above. Mice were sacrificed on Day 11.

The next series relates to H69. Briefly: Tumor cell death by MTT, H69. As to conditions: 10 μM. Format: cell-based, human. How it is done: (§1) The in vitro inhibitory effect of Compound A alone or in combination with a PARP inhibitor on tumor cell growth was tested using human small cell lung cancer (SCLC) cell lines, including H69 (ATCC® HTB-119™), H526 (ATCC® CRL-5811™) and H446 (TCHu196, National Collection of Authenticated Cell Cultures).
(§2) Briefly, the cells were seeded into a 96-well dish with RPMI-1640 (10-040-CV, Coming cellgro) containing 10% fetal bovine serum (10270-106, GIBCO), 1% penicillin and 1% streptomycin (BaSalMedia, S110JV), at an initial density of 3×10^3 cells per well ([…]), and cultured at a 37° C., 5% CO2 humidified incubator for 24 hours. Then, the culture media were added with Compound A (final concentration at 20 nM), olaparib (APEXBIO, A4154, a PARP inhibitor, final concentration at 10 μM), Compound A + olaparib (final concentrations at20 nM and 10 μM), or PBS (vehicle), respectively, and the cells were cultured for 48 hours. Then, cell viability was determined by MTT. The test was done in triplicate.
(§3) Cell death rate was calculated by the following formula.
(§4) Cell death rate=[1−(ODtest-ODvehicle)]×100%
(§5) Cell death rates were analyzed using student's t-test, and group differences were deemed statistically significant when the p-value was lower than 0.05. Zheng-Jun Jin's Q value was calculated using the formula Q=EA+B/(EA+EB-EA×EB) to assess the combined effect of Compound A and the PARP inhibitor, wherein EA+B, EA, and EB referred to the cell death rates caused by the combined treatment, Compound A treatment and PARP inhibitor treatment, respectively. A Q value higher than 1.15 meant a synergistic […] effect.
(§6) Another PARP inhibitor, rucaparib (APEXBIO, A4156), was tested alone or with Compound A for inhibitory effect on tumor cell growth, following the protocol of Example 9.

For a further series, the system named is H526. The series can be described thus: Tumor cell death by MTT, H526. Format: cell-based, human. Conditions: 10 μM. How it is done: as §1, §2, §3, §4, §5, §6
The next series deals with H446. Briefly: Tumor cell death by MTT, H446. In kind it is cell-based, human. As to conditions: 10 μM. How it is done: as §1, §2, §3, §4, §5, §6
The test system of series [7] is Ls-174t human colon cancer cells. The series can be described thus: Ls-174t colon cancer xenograft in mice. Format: in vivo, BALB/cA-nude mice. As to conditions: 153 mg/kg I.P., D0-4, 7-11. From the text:
Mice were sacrificed on Day-14.

As for `CC[C@H](Nc1ncnc2[nH]cnc12)c1nc2cccc(F)c2c(=O)n1-c1ccccc1` [CAL 101, reference compound], in the series on MV-4-11 cells [1] (90 mg/kg P.O.), the “T/C (%) D21” value is recorded as 50%, the “TGI (%) D21” value is 50%, the “Tumor volume D0” value amounted to 79.6 ± 3.1 mm^3 and the “Tumor volume D21” value is listed as 442.2 ± 93.8 mm^3. Also, the Complete remission in the series with MV-4-11 cells [1] (90 mg/kg P.O.) is recorded as 0. Also, in the series on MV-4-11 cells [1] (180 mg/kg P.O.), the “T/C (%) D21” value is given as 39%, the “TGI (%) D21” value was determined as 61%, the “Tumor volume D0” value is listed as 78.9 ± 1.9 mm^3 and the “Tumor volume D21” value was determined as 361.7 ± 93.8 mm^3. Also, in the series on MV-4-11 cells [1] (180 mg/kg P.O.), the Complete remission is reported as 0.

`O=P1(N(CCCl)CCCl)NCCCO1` (stereo not drawn) [CTX, cyclophosphamide, reference compound]: in series [2], the “Body weight (without tumor) D1” value is given as 21.8 g, the “Body weight (without tumor) D8” value turned out to be 26.8 g and the “Tumor weight on Day 8” value is given as 0.60 ± 0.18 g. For the same compound, the TGI in series [2] (tumor weight, Day 8) is on record as 68.8* %. Besides, in series [3] (30 mg/kg I.V., D1-7), the “Body weight (without tumor) at D8” value amounted to 21.22 g, the TGI worked out at 79.00% and the Tumor weight amounted to 0.43 g.

For orientation: T/C means the result in the treated group divided by that in the control group, in per cent. Regarding `N.N.[Cl][Pt][Cl]` [Cisplatin, cisplatin, reference compound], in [4], the “Body weight (with tumor) D0” value is 18.4 g, the “Body weight (with tumor) D18” value came to 16.0 g, the “RTV at D18” value is recorded as 2.85 ± 1.52 and the “Tumor volume D0” value was determined as 127 ± 24 mm^3. For the same compound, the “Tumor volume D18” value in series [4] came to 366 ± 201 mm^3. Besides, the T/C in [4] (D18) is reported as 34.9* %. In series [5], the “Body weight (with tumor) D0” value is 16.7 g, the “Body weight (with tumor) D18” value worked out at 15.3 g, the “RTV at D18” value was found to be 8.89 ± 5.39 and the “Tumor volume D0” value was 110 ± 12 mm^3. The “Tumor volume D18” value in series [5] was 944 ± 536 mm^3. Further, the T/C in [5] (D18) is 33.7* %.

As to `COc1cccc2c1C(=O)c1c(O)c3c(c(O)c1C2=O)C[C@@](O)(C(C)=O)C[C@@H]3O[C@H]1C[C@H](N)[C@H](O)[C@H](C)O1` [Daunorubicin, daunorubicin, reference compound], in the series on MV-4-11 cells [6] (D11), the T/C is given as 38% and the TGI is on record as 62%. For the same compound, in the series on MV-4-11 cells [6] (in mm³), the “Tumor volume D0” value is reported as 152.9 and the “Tumor volume D11” value was found to be 1167.3.

For `Nc1ccn([C@@H]2O[C@H](CO)[C@@H](O)C2(F)F)c(=O)n1` [Gemcitabine, gemcitabine], in series [3] (10 mg/kg I.V., D1), the “Body weight (without tumor) at D8” value worked out at 22.31 g, the TGI is 57.51% and the Tumor weight was determined as 0.86 g. In addition, in [3] (20 mg/kg IV, D1), the “Body weight (without tumor) at D8” value is 22.35 g, the TGI is given as 81.53% and the Tumor weight was determined as 0.38 g.

Turning to `O=C(c1cc(Cc2n[nH]c(=O)c3ccccc23)ccc1F)N1CCN(C(=O)C2CC2)CC1` [Olaparib, olaparib, reference compound], in the series with H69 (48 hours, Table 10), the “Cell Death Rate/% 1” value worked out at 6%, the “Cell Death Rate/% 2” value is listed as 6.25%, the “Cell Death Rate/% 3” value came to 6.54% and the “Cell Death Rate/% mean” value is 6.26%. In addition, in the series on H526 (48 hours, Table 10), the “Cell Death Rate/% 1” value was 5.25%, the “Cell Death Rate/% 2” value worked out at 4.92%, the “Cell Death Rate/% 3” value is given as 5.13% and the “Cell Death Rate/% mean” value was 5.10%. In the series on H446 (48 hours, Table 10), the “Cell Death Rate/% 1” value is given as 12.01%, the “Cell Death Rate/% 2” value is reported as 12.55%, the “Cell Death Rate/% 3” value was 12.24% and the “Cell Death Rate/% mean” value was found to be 12.27%.

On to `Nc1nc2[nH]cc(CCc3ccc(C(=O)N[C@@H](CCC(=O)O)C(=O)O)cc3)c2c(=O)[nH]1` [Pemetrexed disodium, pemetrexed disodium, reference compound], for which, in series [7], the “Body weight (without tumor) D0” value turned out to be 24.0 g, the “Body weight (without tumor) D14” value came out at 15.3 g, the “RTV at D14” value is reported as 9.14 ± 2.86 and the “Tumor volume D0” value turned out to be 138 ± 33 mm^3. In series [7], the “Tumor volume D14” value came to 1209 ± 244 mm^3. The T/C in series [7] (D14) is given as 43.3* %.

For `CNCc1ccc(-c2[nH]c3cc(F)cc4c3c2CCNC4=O)cc1` [Rucaparib, rucaparib, reference compound], in the series on H69 (Example 10, Table 11), the “Cell Death Rate/% 1” value stood at 7.51%, the “Cell Death Rate/% 2” value is reported as 7.3%, the “Cell Death Rate/% 3” value is 8.11% and the “Cell Death Rate/% mean” value is 7.64%. For the same compound, in the series with H526 (Example 10, Table 11), the “Cell Death Rate/% 1” value is 6.73%, the “Cell Death Rate/% 2” value came out at 6.57%, the “Cell Death Rate/% 3” value worked out at 6.19% and the “Cell Death Rate/% mean” value was 6.50%. In the series on H446 (Example 10, Table 11), the “Cell Death Rate/% 1” value was 14%, the “Cell Death Rate/% 2” value amounted to 13.79%, the “Cell Death Rate/% 3” value is listed as 14.48% and the “Cell Death Rate/% mean” value is given as 14.09%.
